Measurements as given in patent US20150283093A1, “NANOENCAPSULATION OF CURCUMINOID METABOLITES - PROCESS, COMPOSITION AND APPLICATIONS THEREOF” (priority 2014, published 2015).

Test: Superoxide radical scavenging activity (alkaline DMSO / NBT method)
Protocol: The scavenging activity towards the superoxide radical (O2^−) was measured as the inhibition of superoxide radical (O2^−) generation. The method was performed by using alkaline DMSO method. Potassium superoxide and dry DMSO were allowed to stand in contact for 24 h and the solution was filtered immediately before use. […] Ascorbic acid was used as standard. The experiment was repeated in triplicate and the percentage scavenging was calculated by using the formula:
Inhibition (%)=[(Control−Test)/Control]×100

Cc1c(C)c2c(c(C)c1O)CCC(C)(C(=O)O)O2 (centres unmarked) [TROLOX]
scavenging of superoxide radical (O2−), concentration dependence: concentration dependant scavenging
scavenging potential of superoxide radical (O2−) (at 100 μM concentration): 47.80%
